Data published in a melting point compilation (Tetko et al.; mined from patent text by program, amines drawn as free bases though some values may be those of a salt).

SMILES | melting point
COc1ccc(O)c(CSc2ccccc2CO)c1 | 80 to 82 °C
COCc1c(-c2ccc(O)cc2)oc2ccccc2c1=O | 237 to 239 °C
CCCCCCCCCCCCCCCCN(C(=O)C(F)(F)F)c1ccc(C(=O)O)cc1 | 50 to 53 °C
CCCSc1cc(-c2ccc(C(F)(F)F)cc2)c(F)cc1[N+](=O)[O-] | 57 to 59 °C
Cc1c2c(c(Cc3ccc(C(C)C)cc3)c(C)c1NCc1ccccc1)OCC2 | 115 to 116 °C
CNC(=N)NC(=O)c1nc(Cl)c(NC2CCCC2)nc1N | 184 to 187 °C
c1ccc(CCNc2cc(-n3cccn3)nc(-c3cccs3)n2)nc1 | 159 to 160 °C
CCCC(CC(=O)Nc1cc(C(N)=O)ccc1C(C)(C)C)c1ccc(OC)cc1OC (stereo not drawn) | 192 °C
CCCCCCCCCC(=O)Nc1ccc2c(c1)C(=O)N(CCN1CCC(c3noc4cc(F)ccc34)CC1)C2=O | 159 to 160 °C
COc1cc2c(cc1OCCCBr)oc1cc(-c3ccccc3Cl)c3c(c12)C(=O)N(CCCBr)C3=O | 180 to 182 °C
CC(=O)Oc1ccc(-c2cnc(NC(=S)Cc3ccccc3)c(Cc3ccccc3)n2)cc1 | 143 to 145 °C
Cc1cn(-c2cccc(C3=Nc4ccc(-c5ccc(F)cc5)cc4NC(=O)C3)c2)c(C)n1 | 188 °C
O=C1c2c(O)cccc2C(O)(c2cccc(C(F)(F)F)c2)c2cccc(O)c21 | 222 to 223 °C
COc1ccc(S(=O)(=O)N(Cc2cccnc2)c2c(C(=O)O)cnc3onc(C)c23)cc1 | 244 to 246 °C
Cc1oc(-c2ccccc2)nc1COc1ccc(Cn2cc(CCC(=O)O)c(-c3ccc(F)cc3)n2)cc1 | 139 to 140 °C
COc1ccc2[nH]c3cc(C(=O)O)c4c(c3c2c1)C(=O)NC4=O | > 300 °C
Cc1ccc(-c2n[nH]c3ccccc23)cc1 | 106 to 107 °C
Cc1ccc(NCc2ccc(N(C)C)cc2)c(C)c1 | 79 to 80 °C
CN(C)c1ncc(CN2C(=O)C3(COc4cc5c(cc43)OCO5)c3ccccc32)s1 (stereo not drawn) | 200 to 202 °C
COc1ccccc1-c1coc2cc(O)c(Cl)cc2c1=O | 228 to 230 °C
O=C(O)c1ccc(N2CCN(c3ccncc3)CC2)cc1 | > 300 °C
NC(=O)COc1ccc(C(=O)CN2CCN(c3ccncc3)CC2)cc1 | 247 to 248 °C
COC(=O)c1ccc(N(C)C)cc1C(=O)OC | 54 to 57 °C
CCN(c1nc2c(cc1CN(Cc1cc(C(F)(F)F)cc(C(F)(F)F)c1)c1nnn(C)n1)c(C)nn2C)C1CCCC1 | 43 to 44 °C
O=C(O)CCCCCCCCCCn1c(-c2ccccc2)c(-c2ccccc2)n(-c2ccccc2)c1=O | 83 to 84 °C

SMILES | melting point
CCOc1cc(C(C)C)c2c(c1)S(=O)(=O)N(COC(=O)c1c(Cl)cccc1Cl)C2=O | 140 to 141 °C
COc1cc(CCNC(=O)[C@@H](N)C(C)C)ccc1OCC#Cc1ccc(Cl)cc1 | 115 to 117 °C
O=C(NC(CC1CCCC1)C(=O)NC1CCCN(S(=O)(=O)c2ccccc2)CC1=O)c1ccco1 (stereo not drawn) | 88 to 90 °C
Cc1ccc(Oc2ccccc2-c2noc(=O)[nH]2)c(O)c1 | 213 to 214 °C
O=C(O)C1=C2OCOc3cccc1c32 | 125 °C
Cc1oc(-c2ccco2)nc1COc1cccc(COc2nn(Cc3ccccc3)cc2C=O)c1 | 135 to 136 °C
Cc1c(-c2ccccc2)oc2c(C(=O)NCCCO)cccc2c1=O | 191 to 193 °C
Cc1cc(Br)cnc1CCCCNc1ncc(Cc2cccnc2)cc1[N+](=O)[O-] | 82 to 84 °C
O=c1[nH]c(=O)n(CCCCBr)c2ncccc12 | 139 to 141 °C
O=C(NC(CS)Cc1ccccc1)NC(CS)Cc1ccccc1 (stereo not drawn) | 136 to 138 °C
NC(=O)Nc1c(C(O)(C(F)(F)F)C(F)(F)F)ccc2c1CCCC2 | 157 to 159 °C
CC1(C)CC(=O)Nc2c(CCN3CCN(c4noc5ccccc45)CC3)cc(F)cc21 | 230 °C
Cc1nc(-c2ccc(C(F)(F)F)cc2)oc1CSc1ccc(OCC(=O)O)cc1 | 131 to 133 °C
CC(C)n1nc(-c2cnc(N)nc2-c2ccccc2Cl)ccc1=O | 227 to 228 °C
CC(C)(C)C(=O)Nc1cc(Cl)c([N+](=O)[O-])cc1Cl | 142 to 145 °C
COC(=O)c1ccc(O)cc1NC(=O)NS(=O)(=O)c1ccc(Cl)cc1 | 244 to 248 °C
CCOC(=O)C(C)(C)Oc1ccc(CNc2ccccc2)cc1 | 45 to 46 °C
CC(=O)NC(=Cc1cccs1)C1=NC(=Cc2cccs2)C(=O)O1 | 218 °C
O=C(O)[C@H](Cc1ccc(C(F)(F)F)cc1)[C@H](O)c1ccc(F)cc1 (racemic) | 111 to 112 °C
CC(C)n1c(C=O)c(-c2ccc(F)cc2)c(-c2ccc(F)cc2)c1C(=O)Nc1ccc(S(N)(=O)=O)cc1 | 194 to 195 °C
Cc1cc(-c2ccc(C(F)(F)F)cc2)nc(-c2cccc(-c3cccc(S(N)(=O)=O)c3)c2)n1 | 224 °C
COc1cc(C)c(C(=O)c2c(Cl)cncc2C(F)(F)F)c(OC)c1OC | 75 to 77 °C
CCOC(=O)Nn1cccc1C(=O)c1ccccc1 | 68 to 70 °C
CS(=O)(=O)c1ccc(-c2ccc(C3C(CCC(O)c4ccc(F)cc4)C(=O)N3c3ccc(F)cc3)cc2)cc1 (stereo not drawn) | 111 °C
O=C(O)c1[nH]c2cc(Br)c(Cl)cc2c1-c1ccccc1 | 241 to 242 °C

SMILES | melting point
O=C(NCCO[N+](=O)[O-])c1ccco1 | 88 to 89 °C
CCCc1cc(=O)oc2c(C(C)=O)c(O)cc(O)c12 | 221 to 224 °C
CCOc1ccc(SCCSc2ccc(OCC)cc2)cc1 | 90 °C
c1ccc(COc2cccc(OCc3ccccc3)n2)cc1 | 74 °C
O=C(O)c1cn(CCc2ccccc2)c2cc(C3CCCC3)nn2c1=O | 198 to 200 °C
COc1ccc(CCN(C)C)c2[nH]c(C(F)(F)F)nc12 | 182 to 185 °C
N#CC(=CN1CCOCC1)C(C[N+](=O)[O-])c1cccc(Cl)c1Cl (stereo not drawn) | 74 to 77 °C
O=[N+]([O-])c1ccccc1C(Cl)Cl | 25.6 to 26.7 °C
O=C(c1c[nH]c2ncc(Br)nc12)C12CC3CC(CC(C3)C1)C2 | 279 to 280 °C
CCCCc1nc(Cl)c(CC(=O)OCC)c(Cc2ccc(C(=O)O)cc2)n1 | 130 °C
CCc1nc(C2CC2)c[nH]1 | 104 to 106 °C
CCOC(=O)c1c[nH]c2cc(Cl)c(F)c(NCC=O)c2c1=O | 213 to 216 °C
Clc1cc(Cl)n2nc(SCc3ccccc3)nc2n1 | 97 to 100 °C
N#Cc1cc(C(=O)NNC(=O)c2occc2-c2ccccc2Oc2ccccc2)ccc1O | 134 to 135 °C
CCOC(=O)c1c(-c2ccccc2C)c2cc(Cl)ccc2[nH]c1=O | 215 to 216 °C
CC(C)(C)OC(=O)N1CCc2c(n(CCO)c3ccc(Cl)c(Cl)c23)CC1 | 174 to 176 °C
CC(C)(C)OC(=O)n1nc2nc3n(c(=O)c2c1N)CCS3 | > 300 °C
CCC(=O)NCCc1c[nH]c2ccc(OCc3ccccc3)cc12 | 110 to 112 °C
CC(C)c1ccc(C2c3ccc(O)cc3OC2(C)C)cc1 (stereo not drawn) | 114 to 115 °C
CCOC(=O)c1snc(-c2ccc(F)cc2)c1N | 137 to 139 °C
O=C1CCC(c2ccc(Cl)c(Cl)c2)O1 (stereo not drawn) | 54 to 55 °C
Cc1cc(-c2nc3cccnn3c2-c2ccnc(NC(=O)c3ccc(C(F)(F)F)nc3)c2)ccc1F | 225 to 226 °C
Cn1c(Cl)cccc1=O | 108 °C
COC(=O)c1ccccc1COc1ccc(-c2cc(O)c(SCCc3ccccc3)c(=O)o2)cc1 | 161 to 162 °C
CCOc1nn(Cc2ccc(OCc3nc(-c4ccccc4)oc3C)c(OC)c2)cc1CCC(=O)O | 122 to 123 °C

SMILES | melting point
Cc1c(-c2ccccc2)oc2c(C(=O)OCCN3CCCCC3)cccc2c1=O | 85 to 86 °C
CC[C@H](C)C(=O)O[C@H]1C[C@@H](C)C=C2C=C[C@H](C)[C@H](CCC(=O)C[C@@H](O)CC(=O)O)[C@H]21 | 102 to 103 °C
O=C(NCc1cccnc1)c1ccc2n1Cc1ccccc1N(C(=O)c1ccc(-c3ccccc3C=NO)cc1)C2 | 165 to 167 °C
COc1ccc(Cc2ccc(NC3=NCCN3)cc2)cc1 | 114 to 116 °C
CCOC(=O)NC(=S)Nc1ncc(C(F)(F)F)cc1F | 99 to 100 °C
CC(C)(O)Cc1ccc(NC(=O)OCc2ccccc2)cc1 | 117 to 118 °C
CC12CCC3C(CCC4CC=CCC43C)C1CC=C2I (stereo not drawn) | 71 to 72 °C
O=c1c(Cl)c(-c2ccc(F)cc2)c1=O | 113 to 115 °C
C1=C2NCCCN2Cc2ccccc2C1c1ccccc1 (stereo not drawn) | 227 to 228 °C
O=C1CC(C(F)(F)F)CC(=O)O1 | 88 to 91 °C
O=C(Nc1cccnc1)N1CCN(c2nccc(-c3cc(F)cc(F)c3)n2)CC1 | 231 to 232 °C
NC(=O)c1ccc(-c2ccc(-c3ccn(C(CC(=O)OCc4ccccc4)C(=O)NC(CO)Cc4ccccc4)c3)cc2)cc1 (stereo not drawn) | 192 to 194 °C
O=C1CCC(N2Cc3c(OCc4ccc(CN5CCC(Oc6ccccc6)CC5)cc4)cccc3C2=O)C(=O)N1 (stereo not drawn) | 180 to 182 °C
CC(C)(C)OC(=O)N1CC[C@@H]2Nc3cccc(Br)c3[C@@H]2CC1 (relative stereo) | 124 °C
O=c1c2cc(O)ccc2nc(CSc2ncnc3[nH]cnc23)n1-c1ccccc1Cl | 186 to 214 °C
Cc1c(SCCCSCc2ccc(Cl)s2)ccnc1CSc1ccncc1 | 76 to 77 °C
O=C1C(Cl)=C(C2CCCCC2)C(=O)c2ccccc21 | 150 to 151 °C
Cc1cc2c(cc1OCc1ccccc1)OC[C@@H](N1CCC(O)(c3ccc(F)cc3)CC1)[C@H]2O (relative stereo) | 201 to 202 °C
O=C(OC(c1ccccc1)c1ccccc1)C(OC(=S)n1ccnc1)c1ccccc1 (stereo not drawn) | 109 to 110 °C
CC1(C)OC(=O)c2c(cccc2-c2ccccc2)O1 | 158 to 163 °C
CC(=O)NCCOC(c1ccc(F)cc1)c1ccc(F)cc1 | 112 to 114 °C
CCn1cc2c(n1)c(N)nc1cc(OCc3ccccc3)ccc12 | 229 to 230 °C
Nc1cccc(S(=O)(=O)NCc2ccncc2)c1 | 139 °C
